Source: article doi:10.1101/203372v2 (biorxiv, 2017)

Target: T1, GST-HDAC6, human, recombinant (recombinant HDAC6 WT) (Homo sapiens, UniProt Q9UBN7)
T1 sequence (Q9UBN7 1-1215): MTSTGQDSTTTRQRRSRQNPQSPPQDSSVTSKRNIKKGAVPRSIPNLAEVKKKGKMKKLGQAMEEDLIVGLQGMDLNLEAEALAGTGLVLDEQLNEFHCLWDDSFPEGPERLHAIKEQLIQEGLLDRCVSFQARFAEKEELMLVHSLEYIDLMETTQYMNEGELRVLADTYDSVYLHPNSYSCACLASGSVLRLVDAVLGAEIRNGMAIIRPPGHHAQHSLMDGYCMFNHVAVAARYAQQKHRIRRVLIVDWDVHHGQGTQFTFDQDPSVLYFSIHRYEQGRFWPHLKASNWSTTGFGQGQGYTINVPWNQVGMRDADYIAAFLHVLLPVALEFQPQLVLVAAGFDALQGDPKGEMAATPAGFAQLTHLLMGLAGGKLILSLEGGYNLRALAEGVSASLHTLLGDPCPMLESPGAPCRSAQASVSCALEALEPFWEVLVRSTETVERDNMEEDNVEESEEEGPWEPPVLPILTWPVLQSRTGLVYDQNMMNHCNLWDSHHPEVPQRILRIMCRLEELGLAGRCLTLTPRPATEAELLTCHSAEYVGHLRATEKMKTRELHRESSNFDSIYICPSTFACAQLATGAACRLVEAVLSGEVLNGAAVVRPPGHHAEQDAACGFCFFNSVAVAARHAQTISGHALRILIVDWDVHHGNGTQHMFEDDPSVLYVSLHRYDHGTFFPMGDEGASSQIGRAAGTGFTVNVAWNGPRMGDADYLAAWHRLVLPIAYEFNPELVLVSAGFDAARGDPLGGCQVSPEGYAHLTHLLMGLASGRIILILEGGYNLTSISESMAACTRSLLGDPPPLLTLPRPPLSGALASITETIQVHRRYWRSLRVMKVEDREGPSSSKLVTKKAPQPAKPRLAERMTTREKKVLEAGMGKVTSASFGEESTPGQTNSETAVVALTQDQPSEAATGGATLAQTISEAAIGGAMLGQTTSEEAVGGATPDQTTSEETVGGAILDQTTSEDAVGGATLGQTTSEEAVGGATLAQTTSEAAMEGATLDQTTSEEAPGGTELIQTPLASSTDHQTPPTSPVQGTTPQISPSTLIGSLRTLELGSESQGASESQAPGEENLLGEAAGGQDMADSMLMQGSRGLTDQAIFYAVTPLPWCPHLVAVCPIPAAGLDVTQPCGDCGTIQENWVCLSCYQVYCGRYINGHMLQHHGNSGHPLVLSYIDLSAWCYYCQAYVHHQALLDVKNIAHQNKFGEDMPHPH
Assay: ELISA PPI competition, HDAC6 binding to immobilised His6-ubiquitin

IC50: 78 µM
SMILES: Cc1ccccc1OCCCn1cc(C=C2C(=N)N3N=CSC3=NC2=O)c2ccccc21 [compound 16]
